From the kinase profiling compilation of Christmann-Franck et al. (2016)
Where “and” joins values, the source holds several entries; their conditions need not be identical. Identical values can stand only once.

How the values were obtained:
Assay in all cases: radiometric filter-binding kinase assay, Kinase HotSpot
Settings in all cases: compound 0.5 µM; ATP 10 µM
AKT2 (human) = AKT2 (human) (UniProt P31751)
AURKB (human) = AURKB (human) (UniProt Q96GD4)
AXL (human) = AXL (human) (UniProt P30530)
BRAF (human) = BRAF (human) (UniProt P15056)
CAMKK1 (human) = CAMKK1 (human) (UniProt Q8N5S9)
CDK3 CCNE1 (human) = CDK3 CCNE1 (human) (UniProt Q00526+P24864)
CDK6 CCND1 (human) = CDK6 CCND1 (human) (UniProt Q00534+P24385)
CLK2 (human) = CLK2 (human) (UniProt P49760)
CSNK1A1 (human) = CSNK1A1 (human) (UniProt P48729)
CSNK2A2 (human) = CSNK2A2 (human) (UniProt P19784)
EPHA4 (human) = EPHA4 (human) (UniProt P54764)
ERBB4 (human) = ERBB4 (human) (UniProt Q15303)
HIPK4 (human) = HIPK4 (human) (UniProt Q8NE63)
IKBKE (human) = IKBKE (human) (UniProt Q14164)
KIT (human) = KIT (human) (UniProt P10721)
LRRK2 (human) = LRRK2 (human) (UniProt Q5S007)
MAP3K10 (human) = MAP3K10 (human) (UniProt Q02779)
MAP3K9 (human) = MAP3K9 (human) (UniProt P80192)
MAPK11 (human) = MAPK11 (human) (UniProt Q15759)
MAPK3 (human) = MAPK3 (human) (UniProt P27361)
MAPKAPK2 (human) = MAPKAPK2 (human) (UniProt P49137)
MELK (human) = MELK (human) (UniProt Q14680)
MST1R (human) = MST1R (human) (UniProt Q04912)
NUAK1 (human) = NUAK1 (human) (UniProt O60285)
NUAK2 (human) = NUAK2 (human) (UniProt Q9H093)
PAK4 (human) = PAK4 (human) (UniProt O96013)
PAK6 (human) = PAK6 (human) (UniProt Q9NQU5)
PIM1 (human) = PIM1 (human) (UniProt P11309)
PRKACG (human) = PRKACG (human) (UniProt P22612)
PRKD2 (human) = PRKD2 (human) (UniProt Q9BZL6)
PRKG1 (human) = PRKG1 (human) (UniProt Q13976)
RPS6KA3 KD1 KD2 (human) = RPS6KA3 KD1 KD2 (human) (UniProt P51812)
SGK2 (human) = SGK2 (human) (UniProt Q9HBY8)
SRPK2 (human) = SRPK2 (human) (UniProt P78362)
STK10 (human) = STK10 (human) (UniProt O94804)
STK25 (human) = STK25 (human) (UniProt O00506)
STK39 (human) = STK39 (human) (UniProt Q9UEW8)
TAOK3 (human) = TAOK3 (human) (UniProt Q9H2K8)
TEK (human) = TEK (human) (UniProt Q02763)
TSSK2 (human) = TSSK2 (human) (UniProt Q96PF2)
WNK3 (human) = WNK3 (human) (UniProt Q9BYP7)

Chain of AXL (human) (P30530 whole entry, looked up): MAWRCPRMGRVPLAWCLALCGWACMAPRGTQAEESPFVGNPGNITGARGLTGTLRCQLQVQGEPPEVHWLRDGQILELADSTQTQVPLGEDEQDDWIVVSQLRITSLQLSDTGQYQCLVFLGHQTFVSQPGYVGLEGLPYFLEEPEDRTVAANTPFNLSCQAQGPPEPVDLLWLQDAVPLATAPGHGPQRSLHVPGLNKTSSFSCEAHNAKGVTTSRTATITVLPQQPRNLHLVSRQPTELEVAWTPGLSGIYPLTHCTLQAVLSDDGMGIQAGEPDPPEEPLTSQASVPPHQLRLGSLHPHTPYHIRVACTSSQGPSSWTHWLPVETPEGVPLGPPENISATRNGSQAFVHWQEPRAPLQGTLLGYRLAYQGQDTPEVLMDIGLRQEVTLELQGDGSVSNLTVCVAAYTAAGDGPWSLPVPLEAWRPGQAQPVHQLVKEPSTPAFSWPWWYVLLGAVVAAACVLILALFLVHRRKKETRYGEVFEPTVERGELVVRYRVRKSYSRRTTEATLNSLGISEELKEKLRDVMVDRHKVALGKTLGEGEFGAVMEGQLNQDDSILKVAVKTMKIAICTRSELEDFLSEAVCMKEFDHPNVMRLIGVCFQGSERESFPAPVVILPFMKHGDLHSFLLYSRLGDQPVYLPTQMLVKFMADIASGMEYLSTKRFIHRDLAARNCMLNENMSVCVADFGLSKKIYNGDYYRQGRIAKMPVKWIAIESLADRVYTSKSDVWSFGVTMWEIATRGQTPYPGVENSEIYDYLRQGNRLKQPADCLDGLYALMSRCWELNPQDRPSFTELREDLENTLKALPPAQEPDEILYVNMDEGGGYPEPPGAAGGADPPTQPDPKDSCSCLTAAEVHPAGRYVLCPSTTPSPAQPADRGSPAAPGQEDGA
Chain of TAOK3 (human) (Q9H2K8 whole entry, looked up): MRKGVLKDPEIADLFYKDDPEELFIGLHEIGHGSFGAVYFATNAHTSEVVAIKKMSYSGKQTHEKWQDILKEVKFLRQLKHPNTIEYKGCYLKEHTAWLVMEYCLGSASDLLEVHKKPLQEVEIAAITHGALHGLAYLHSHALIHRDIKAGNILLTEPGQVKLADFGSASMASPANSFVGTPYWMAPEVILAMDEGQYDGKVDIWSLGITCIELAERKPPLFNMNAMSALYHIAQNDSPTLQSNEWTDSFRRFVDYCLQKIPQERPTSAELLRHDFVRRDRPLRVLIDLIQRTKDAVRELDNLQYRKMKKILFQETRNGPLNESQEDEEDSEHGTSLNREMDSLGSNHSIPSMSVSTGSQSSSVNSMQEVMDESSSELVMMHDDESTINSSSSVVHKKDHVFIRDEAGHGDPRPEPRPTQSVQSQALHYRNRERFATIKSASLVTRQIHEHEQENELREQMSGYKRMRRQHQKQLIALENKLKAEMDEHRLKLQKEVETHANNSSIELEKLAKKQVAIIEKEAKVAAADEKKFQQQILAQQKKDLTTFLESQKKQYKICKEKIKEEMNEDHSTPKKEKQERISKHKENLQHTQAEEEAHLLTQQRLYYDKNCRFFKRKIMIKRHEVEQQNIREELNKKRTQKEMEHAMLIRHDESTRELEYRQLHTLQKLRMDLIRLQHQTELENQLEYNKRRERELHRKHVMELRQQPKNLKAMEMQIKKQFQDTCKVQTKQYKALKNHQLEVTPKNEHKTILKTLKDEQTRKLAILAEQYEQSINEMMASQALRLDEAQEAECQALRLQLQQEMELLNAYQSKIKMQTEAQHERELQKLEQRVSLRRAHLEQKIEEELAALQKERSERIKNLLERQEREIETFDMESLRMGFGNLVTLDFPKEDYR
Chain of NUAK1 (human) (O60285 whole entry, looked up): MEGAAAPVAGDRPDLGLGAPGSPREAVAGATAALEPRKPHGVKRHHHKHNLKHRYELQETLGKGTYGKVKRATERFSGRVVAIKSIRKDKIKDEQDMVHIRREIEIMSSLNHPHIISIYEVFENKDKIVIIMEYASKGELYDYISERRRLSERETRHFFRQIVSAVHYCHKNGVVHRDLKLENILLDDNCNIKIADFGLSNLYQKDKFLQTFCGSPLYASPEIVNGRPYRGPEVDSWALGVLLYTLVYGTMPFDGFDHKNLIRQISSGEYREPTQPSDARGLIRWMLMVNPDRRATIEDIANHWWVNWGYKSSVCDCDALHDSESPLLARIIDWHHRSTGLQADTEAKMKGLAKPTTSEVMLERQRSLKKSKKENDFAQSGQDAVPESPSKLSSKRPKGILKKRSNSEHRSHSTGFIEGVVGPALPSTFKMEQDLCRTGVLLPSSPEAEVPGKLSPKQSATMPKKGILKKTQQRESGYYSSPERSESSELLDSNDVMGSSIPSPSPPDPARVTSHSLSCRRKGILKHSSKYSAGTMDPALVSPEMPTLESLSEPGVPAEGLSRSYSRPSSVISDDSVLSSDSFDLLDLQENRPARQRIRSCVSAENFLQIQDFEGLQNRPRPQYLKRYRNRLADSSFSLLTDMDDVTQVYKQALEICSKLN
Chain of MAP3K10 (human) (Q02779 whole entry, looked up): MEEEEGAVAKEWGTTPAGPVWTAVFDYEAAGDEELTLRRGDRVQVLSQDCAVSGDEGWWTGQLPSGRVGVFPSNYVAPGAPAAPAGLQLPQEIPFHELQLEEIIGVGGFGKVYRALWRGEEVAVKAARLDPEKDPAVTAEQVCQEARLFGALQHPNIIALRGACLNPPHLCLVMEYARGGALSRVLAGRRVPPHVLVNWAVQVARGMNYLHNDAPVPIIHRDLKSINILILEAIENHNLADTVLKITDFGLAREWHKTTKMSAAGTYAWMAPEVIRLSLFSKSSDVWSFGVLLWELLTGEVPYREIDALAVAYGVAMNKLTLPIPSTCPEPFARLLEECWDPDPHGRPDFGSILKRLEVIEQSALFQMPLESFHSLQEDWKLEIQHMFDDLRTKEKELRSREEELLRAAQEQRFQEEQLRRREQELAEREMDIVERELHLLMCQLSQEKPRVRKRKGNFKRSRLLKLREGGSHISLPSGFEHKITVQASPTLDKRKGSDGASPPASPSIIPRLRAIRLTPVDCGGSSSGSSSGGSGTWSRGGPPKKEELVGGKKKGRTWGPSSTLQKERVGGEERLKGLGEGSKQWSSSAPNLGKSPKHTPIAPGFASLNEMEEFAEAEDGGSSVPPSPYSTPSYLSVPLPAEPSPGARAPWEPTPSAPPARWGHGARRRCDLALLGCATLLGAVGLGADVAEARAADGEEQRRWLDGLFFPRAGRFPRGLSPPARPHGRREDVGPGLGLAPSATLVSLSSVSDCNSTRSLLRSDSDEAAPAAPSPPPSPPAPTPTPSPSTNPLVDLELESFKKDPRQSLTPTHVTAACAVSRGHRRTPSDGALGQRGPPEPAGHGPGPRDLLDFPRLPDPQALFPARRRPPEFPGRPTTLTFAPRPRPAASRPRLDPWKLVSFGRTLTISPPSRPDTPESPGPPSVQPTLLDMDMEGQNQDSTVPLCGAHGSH
Chain of MELK (human) (Q14680 whole entry, looked up): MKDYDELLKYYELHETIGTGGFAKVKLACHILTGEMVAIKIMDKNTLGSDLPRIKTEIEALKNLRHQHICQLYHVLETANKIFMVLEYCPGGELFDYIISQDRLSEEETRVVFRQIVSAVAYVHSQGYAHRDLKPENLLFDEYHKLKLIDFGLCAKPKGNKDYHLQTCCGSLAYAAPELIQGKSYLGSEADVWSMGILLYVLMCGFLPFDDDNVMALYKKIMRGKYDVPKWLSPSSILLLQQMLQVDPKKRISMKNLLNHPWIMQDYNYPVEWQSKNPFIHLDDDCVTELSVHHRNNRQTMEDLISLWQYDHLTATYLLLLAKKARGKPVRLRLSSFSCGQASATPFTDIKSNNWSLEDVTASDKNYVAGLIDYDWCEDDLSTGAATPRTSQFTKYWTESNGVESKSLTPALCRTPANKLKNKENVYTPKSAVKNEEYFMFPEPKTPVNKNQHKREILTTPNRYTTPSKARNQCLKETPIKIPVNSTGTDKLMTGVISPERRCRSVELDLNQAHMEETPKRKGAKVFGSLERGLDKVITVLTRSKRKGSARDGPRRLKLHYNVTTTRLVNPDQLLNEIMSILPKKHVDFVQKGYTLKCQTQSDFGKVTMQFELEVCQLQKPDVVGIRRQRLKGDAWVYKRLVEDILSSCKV
Chain of MAPK3 (human) (P27361 whole entry, looked up): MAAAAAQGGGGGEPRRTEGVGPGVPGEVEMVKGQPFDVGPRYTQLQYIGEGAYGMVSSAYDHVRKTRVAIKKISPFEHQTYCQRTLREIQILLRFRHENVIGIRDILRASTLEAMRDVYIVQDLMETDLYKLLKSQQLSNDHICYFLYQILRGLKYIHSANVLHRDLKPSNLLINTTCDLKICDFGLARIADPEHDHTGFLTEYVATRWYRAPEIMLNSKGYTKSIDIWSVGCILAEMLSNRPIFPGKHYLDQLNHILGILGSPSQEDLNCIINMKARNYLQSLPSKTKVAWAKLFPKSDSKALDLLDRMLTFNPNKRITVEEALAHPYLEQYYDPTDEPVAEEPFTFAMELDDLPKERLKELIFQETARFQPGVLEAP
Chain of CLK2 (human) (P49760 whole entry, looked up): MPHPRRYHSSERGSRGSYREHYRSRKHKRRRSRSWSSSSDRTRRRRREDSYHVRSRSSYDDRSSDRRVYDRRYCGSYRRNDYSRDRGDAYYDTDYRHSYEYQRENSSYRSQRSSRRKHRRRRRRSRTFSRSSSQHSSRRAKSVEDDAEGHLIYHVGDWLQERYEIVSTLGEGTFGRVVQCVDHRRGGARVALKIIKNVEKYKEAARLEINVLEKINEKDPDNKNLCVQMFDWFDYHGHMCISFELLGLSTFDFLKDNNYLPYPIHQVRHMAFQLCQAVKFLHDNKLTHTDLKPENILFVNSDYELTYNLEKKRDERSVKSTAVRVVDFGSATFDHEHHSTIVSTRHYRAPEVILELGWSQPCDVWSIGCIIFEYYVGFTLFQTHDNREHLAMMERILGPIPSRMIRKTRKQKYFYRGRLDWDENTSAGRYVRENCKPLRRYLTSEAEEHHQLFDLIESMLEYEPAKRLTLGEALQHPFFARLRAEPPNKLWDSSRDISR

N#C/C(=C(/N)Sc1ccc(N)cc1)c1ccccc1C(F)(F)F
residual activity (AKT2 (human)): 102% | residual activity (AURKB (human)): 99.8% | residual activity (AXL (human)): 119% | residual activity (BRAF (human)): 95% | residual activity (CAMKK1 (human)): 117% | residual activity (CDK3 CCNE1 (human)): 105% | residual activity (CDK6 CCND1 (human)): 98% | residual activity (CLK2 (human)): 100% | residual activity (CSNK1A1 (human)): 82.9% | residual activity (CSNK2A2 (human)): 86% | residual activity (EPHA4 (human)): 99.3% | residual activity (ERBB4 (human)): 89.9% | residual activity (HIPK4 (human)): 100% | residual activity (IKBKE (human)): 102% | residual activity (KIT (human)): 91.8% | residual activity (LRRK2 (human)): 100% | residual activity (MAP3K10 (human)): 88.1% | residual activity (MAP3K9 (human)): 85.9% | residual activity (MAPK11 (human)): 112% | residual activity (MAPK3 (human)): 116% | residual activity (MAPKAPK2 (human)): 103% | residual activity (MELK (human)): 96.1% | residual activity (MST1R (human)): 90.4% | residual activity (NUAK1 (human)): 95.9% | residual activity (NUAK2 (human)): 75% | residual activity (PAK4 (human)): 99.4% | residual activity (PAK6 (human)): 107% | residual activity (PIM1 (human)): 99.7% | residual activity (PRKACG (human)): 101% | residual activity (PRKD2 (human)): 93.4% | residual activity (PRKG1 (human)): 100% and 98.8% | residual activity (RPS6KA3 KD1 KD2 (human)): 100% | residual activity (SGK2 (human)): 99% | residual activity (SRPK2 (human)): 99.5% | residual activity (STK10 (human)): 88.7% | residual activity (STK25 (human)): 114% | residual activity (STK39 (human)): 94.6% | residual activity (TAOK3 (human)): 98.6% | residual activity (TEK (human)): 104% | residual activity (TSSK2 (human)): 94.2% | residual activity (WNK3 (human)): 94.9%

Nc1ncnc2c1c(-c1ccc(Oc3ccccc3)cc1)cn2C1CCCC1
residual activity (AKT2 (human)): 99.7% | residual activity (AURKB (human)): 88.6% | residual activity (AXL (human)): 113% | residual activity (BRAF (human)): 85.4% | residual activity (CAMKK1 (human)): 99.1% | residual activity (CDK3 CCNE1 (human)): 92.6% | residual activity (CDK6 CCND1 (human)): 98.2% | residual activity (CLK2 (human)): 95.2% | residual activity (CSNK1A1 (human)): 84.9% | residual activity (CSNK2A2 (human)): 74.7% | residual activity (EPHA4 (human)): 87.5% | residual activity (ERBB4 (human)): 11.9% | residual activity (HIPK4 (human)): 102% | residual activity (IKBKE (human)): 97.4% | residual activity (KIT (human)): 21.6% | residual activity (LRRK2 (human)): 86.2% | residual activity (MAP3K10 (human)): 82.6% | residual activity (MAP3K9 (human)): 103% | residual activity (MAPK11 (human)): 106% | residual activity (MAPK3 (human)): 108% | residual activity (MAPKAPK2 (human)): 107% | residual activity (MELK (human)): 101% | residual activity (MST1R (human)): 94% | residual activity (NUAK1 (human)): 87% | residual activity (NUAK2 (human)): 96.8% | residual activity (PAK4 (human)): 101% | residual activity (PAK6 (human)): 88.2% | residual activity (PIM1 (human)): 92.4% | residual activity (PRKACG (human)): 106% | residual activity (PRKD2 (human)): 91.5% | residual activity (PRKG1 (human)): 103% and 96.4% | residual activity (RPS6KA3 KD1 KD2 (human)): 96.9% | residual activity (SGK2 (human)): 95.4% | residual activity (SRPK2 (human)): 93.4% | residual activity (STK10 (human)): 73.1% | residual activity (STK25 (human)): 113% | residual activity (STK39 (human)): 84.8% | residual activity (TAOK3 (human)): 92.9% | residual activity (TEK (human)): 94.3% | residual activity (TSSK2 (human)): 92.1% | residual activity (WNK3 (human)): 85.2%

N#CC(C#N)=C(N)/C(C#N)=C/c1ccc(O)cc1
residual activity (AKT2 (human)): 92.8% | residual activity (AURKB (human)): 91% | residual activity (AXL (human)): 93.7% | residual activity (BRAF (human)): 90.1% | residual activity (CAMKK1 (human)): 104% | residual activity (CDK3 CCNE1 (human)): 96.8% | residual activity (CDK6 CCND1 (human)): 91.3% | residual activity (CLK2 (human)): 100% | residual activity (CSNK1A1 (human)): 85% | residual activity (CSNK2A2 (human)): 102% | residual activity (EPHA4 (human)): 96% | residual activity (ERBB4 (human)): 92.7% | residual activity (HIPK4 (human)): 99.7% | residual activity (IKBKE (human)): 91% | residual activity (KIT (human)): 92.4% | residual activity (LRRK2 (human)): 97.1% | residual activity (MAP3K10 (human)): 98% | residual activity (MAP3K9 (human)): 94.4% | residual activity (MAPK11 (human)): 100% | residual activity (MAPK3 (human)): 101% | residual activity (MAPKAPK2 (human)): 91.3% | residual activity (MELK (human)): 101% | residual activity (MST1R (human)): 102% | residual activity (NUAK1 (human)): 92.3% | residual activity (NUAK2 (human)): 122% | residual activity (PAK4 (human)): 85.6% | residual activity (PAK6 (human)): 97% | residual activity (PIM1 (human)): 103% | residual activity (PRKACG (human)): 96.8% | residual activity (PRKD2 (human)): 100% | residual activity (PRKG1 (human)): 89.5% and 91.3% | residual activity (RPS6KA3 KD1 KD2 (human)): 94.6% | residual activity (SGK2 (human)): 110% | residual activity (SRPK2 (human)): 88.8% | residual activity (STK10 (human)): 92.4% | residual activity (STK25 (human)): 90.4% | residual activity (STK39 (human)): 90.3% | residual activity (TAOK3 (human)): 102% | residual activity (TEK (human)): 104% | residual activity (TSSK2 (human)): 94.6% | residual activity (WNK3 (human)): 99.8%
